How the values were obtained:
[1] = system: INS-1 cells; assay: Apoptosis of INS-1 cells induced by STZ (Annexin V/PI flow cytometry); type: cell-based, rat; settings: STZ-induced, 1, 10, 100 μM, 36 h, concentration dependent
Experimental: The INS cells were seeded into 6-well culture plates at 3 × 10^4 cells per ml and incubated at 37 °C for 24 h. […] After incubated for 36 h, apoptosis was assessed by flow cytometry using the Annexin V-FITC/ propidium iodide (Annexin V/PI) apoptosis detection kit according to the manufacturer’s protocol.

[2] = system: HbA1c; assay: HbA1c level in blood of model rats; type: in vivo, rat; settings: 30 days
Experimental: (§1) To establish model of T2DM, male rats (80–100 g, 9-week-old)[49] were fed high fat diet (HFD) (20% sugar, 10% lard, 10% egg yolk and 60% basal feed) after a week of normal diet. After 4 weeks, rats were injected once with low-dose streptozotocin (Solarbio, China) (STZ, 30 mg/kg i.p) to induce partial insulin deficiency, and then continuously fed HFD for 4 weeks after injection of STZ. Then the model rats were oral administrated drugs for 30 days. The body weights were recorded once a week.
(§2) Oral glucose load, fasted and random blood samples were collected from rats on the 28th days, the 29th days and the last of the treatment of drugs, respectively. Plasma levels of insulin and GLP-1 were measured by ELISA kits (YuanYe, China) according to the manufacturer’s recommendation. The levels of HbA1c, Triglycerides (TG), total cholesterol (TC) and low density lipoprotein cholesterol (LDL-C) in blood samples were measured by commercial assay kits (JianCheng, Nanjing, China) according to the manufacturer’s directions.

[3] = system: NCI-H716 cells; assay: GLP-1 secretion in NCI-H716 cells; type: cell-based, human; settings: 100 μM, 2 h; solvent group 6.6 ± 0.14 pmol/L
Experimental: Human enteroendocrine NCI-H716 cells were maintained in suspension culture as described by the American Type Culture Collection guideline (ATCC). Two days before the experiments, cells were seeded into 12-well culture plates coated with Matrigel at 1 × 10^6 cells per well. Cells were incubated in RPMI 1640 containing 10% FBS at 37 °C for 48 h. […] After incubated for 2 h, GLP-1 concentrations from the supernatants were measured by ELISA kits (YuanYe, China).

[4] = system: TG, LDL-C; assay: TG and LDL-C plasma levels in model rats; type: in vivo, rat
Experimental: as §1, §2

[5] = system: model rats (HFD/low-dose STZ, T2DM); assay: Oral glucose tolerance test (OGTT) in HFD/STZ T2DM model rats; type: in vivo, rat; settings: for percentage reduction of blood glucose levels in OGTT: model rats
Experimental: as §1
On the 1st day, 19th days and 29th days of treatment, oral glucose tolerance tests for model rats were carried out. […] The blood glucose levels were tested using Johnson one touch Ultra Test Strips on Johnson Performa blood glucose meter.

[6] = system: pancreatic islets; assay: Morphologic observation on islet of model rats (HE, immunofluorescence, TEM); type: in vivo, rat
Experimental: HE staining on paraffin section was performed as described in reports. In brief, paraffin section were rinsed with PBS, fixed with 4% paraformaldehyde (PFA) for 30 min and then washed by PBS. The pancreas tissue were stained with Hematoxylin-Eosin, afterwards, they were dehydrated in alcohols. Morphological changes of the pancreas tissue were observed under an optical microscope (Olympus, Japan) after mounted by neutral resins.
Pancreas sections (8 μm) were cut in a cryostat and collected on superfrost microscope slides. The slides were stored at −20 °C till analysis. Immunofluorescent staining was used for detection of insulin (β cells) (1:100, Anti-Insulin antibody, Abcam), glucagon (α cells) (1:200, Anti-glucagon, Abcam). Briefly, the slides were blocked in 5% normal goat serum for 1 h in a humidified chamber. Slides were exposed to primary antibodies at a dilution of […] in antibody diluting solution at 4 °C overnight, washed in PBS, and exposed to appropriate secondary antibodies linked to the fluorescent probes (Goat Anti-Guinea pig IgG/FITC and Alexa Fluor 594-conjugated Goat Anti-Rabbit IgG) (Bioss and Proteintech, China) in antibody diluting solution for 1 h and DAPI (Beyotime, China) for 5 min in the dark. After washed by PBS, slides were mounted with a glycerol mounting medium. Images were collected using a fluorescent microscope (Nikon, Japan).
For transmission electron microscopy, about 1 mm^3 tissue specimens were obtained from the same pancreas region of the control and experimental groups of rats, and fixed overnight in 2% glutaraldehyde (pH7.3) in 0.1 M phosphate buffer saline at 4 °C. Images of pancreatic islets were captured from random tissue sections using a transmission electron microscope.

[7] = system: LO-2 cells; assay: Cytotoxicity in LO-2 cells (CCK-8); type: cell-based; settings: 1 × 10^−4 M, 12 h
Experimental: The toxicities of CMD-05 on HT22, 293 and […] cell lines was assessed using Cell Counting Kit-8 (CCK-8) (Biosharp, China). Briefly, the cells were plated on 96-well plates. […] The absorbance at 450 nm was measured using a microplate spectrophotometer.

[8] = system: GLP-1; assay: Plasma GLP-1 levels in model rats (ELISA); type: in vivo, rat; settings: 4.5 mg/kg, glucose load and random plasma
Experimental: as §1, §2

## N#C[C@@H]1CCCN1C(=O)CN(C(=O)CCCCCl)C12CC3CC(CC(O)(C3)C1)C2 [CMD-05]
[1]
  apoptosis of INS-1 cells: reduce of apoptosis
[2]; 1.5 mg/kg
  reduction of the level of HbA1c: 1.0%
[2]; 4.5 mg/kg
  reduction of the level of HbA1c: 2.2%
[3]
  GLP-1 secretion: 7.5 ± 0.44 pmol/L
[4]; 0.5 mg/kg
  reduction of LDL-C level: 9%
  reduction of TG level: 22.41%
[4]; 1.5 mg/kg
  reduction of LDL-C level: 12.60%
  reduction of TG level: 37.07%
[4]; 4.5 mg/kg
  reduction of LDL-C level: 17.91%
  reduction of TG level: 42.67%
[4]; 4.5 mg/kg continuously for 30 days
  plasma lipids levels: decreased to normal level
[5]; 1.5 mg/kg oral, 1st day
  percentage reduction of blood glucose levels in OGTT: 8.0%
[5]; 1.5 mg/kg oral, 19th day
  percentage reduction of blood glucose levels in OGTT: 9.22%
[5]; 1.5 mg/kg oral, 29th day
  percentage reduction of blood glucose levels in OGTT: 17.8%
[5]; 4.5 mg/kg oral, 1st day
  percentage reduction of blood glucose levels in OGTT: 9.7%
[5]; 4.5 mg/kg oral, 19th day
  percentage reduction of blood glucose levels in OGTT: 12.2%
[5]; 4.5 mg/kg oral, 29th day
  percentage reduction of blood glucose levels in OGTT: 21.9%
[5]; 1st, 19th and 29th day, vs model group
  AUC (area under the blood glucose curve) in OGTT: significant decrease
[6]; 30 days treatment
  distribution of β cells (insulin/glucagon double staining): obviously improved
  mass of α-cells (insulin/glucagon double staining): mildly reduced
  morphology of pancreatic islets (HE staining): prevent islet from damage
[6]; compared with the model
  secretory granules in β cells (transmission electron microscopy): obviously increased
[7]
  cytotoxicity (cell viability): no detectable toxic effect
[8]
  levels of GLP-1 in plasma: significantly increased
